Patent publication US20180332850A1, “METHOD FOR IMPROVING EARLINESS IN COTTON” (Robert Bosch GmbH, priority 2015, published 2018)

Test system: Cotton (Gossypium hirsutum) of the variety DP 1050 B2BRF
Assay: Field trial: percentage of open bolls in cotton after in-furrow application (earliness)
Assay type: in vivo
Settings: application rate 841 g/ha, in furrow by spreading, visual inspection
Text: Cotton (Gossypium hirsutum) of the variety DP 1050 B2BRF was planted in a field trial in Brooks, Ga., United States in May 2013. Temik (comprising the active ingredient Aldicarb ([2-methyl-2-(methylthio) propionaldehyde O-(methylcarbamoyl)oxime]) and Fluopyram in combination with Imidacloprid (Velum® Total, Bayer CropScience) were applied in furrow at the same day. Temik was used for controlling insects in cotton and was provided as a Granule Release formulation with 15% (w/w) active ingredient and was applied at a rate of 841 g of active ingredient/ha by spreading. Fluopyram in combination with Imidacloprid (Velum® Total) was used as a Soluble Concentrate (SC) formulation with a concentration of 440 g/l active ingredient in total, thereof 180 g/l Fluopyram and 260 g/l Imidacloprid and these combinations were applied separately at three different rates of 321.5 g of total active ingredient/ha, 450 g of total active ingredient/ha, and 578.7 g of total active ingredient/ha by spraying. The percentage of open bolls was assessed by visual inspection at three times after application.

## CNC(=O)ON=CC(C)(C)SC [Aldicarb, 2-methyl-2-(methylthio) propionaldehyde O-(methylcarbamoyl)oxime]
97 days after application, BBCH 76
  percentage of open bolls, 97 Days after Application BBCH 76: 12.5%
104 days after application, BBCH 77
  percentage of open bolls, 104 Days after Application BBCH 77: 17.5%
111 days after application, BBCH 78
  percentage of open bolls, 111 Days after Application BBCH 78: 30.0%
